In PubChem BioAssay (NCI):
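Values below derive from 48-hour exposures of cells grown in 96-well plates, with endpoints linearly interpolated between the two concentrations bracketing the appropriate inhibition level. GI50 is the concentration that inhibits growth by half. TGI: concentration producing complete growth inhibition.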

Assays:
Assay in all cases: NCI-60 cell line screen, 48 h
SR leukemia = tested on: SR leukemia
HOP-62 NSCLC = tested on: HOP-62 NSCLC
K-562 leukemia = tested on: K-562 leukemia
HS 578T breast = tested on: HS 578T breast
COLO 205 colon = tested on: COLO 205 colon
T-47D breast = tested on: T-47D breast
HCC-2998 colon = tested on: HCC-2998 colon
786-0 renal = tested on: 786-0 renal
A498 renal = tested on: A498 renal
MDA-MB-435 = tested on: MDA-MB-435
UO-31 renal = tested on: UO-31 renal
MDA-MB-231 breast = tested on: MDA-MB-231 breast

| Compound | TGI (SR leukemia) [µM] | TGI (HOP-62 NSCLC) [µM] | TGI (K-562 leukemia) [µM] | TGI (HS 578T breast) [µM] | TGI (COLO 205 colon) [µM] | TGI (T-47D breast) [µM] | TGI (HCC-2998 colon) [µM] | TGI (786-0 renal) [µM] | TGI (A498 renal) [µM] | TGI (MDA-MB-435) [µM] | TGI (UO-31 renal) [µM] | TGI (MDA-MB-231 breast) [µM] | GI50 (K-562 leukemia) [µM] | GI50 (COLO 205 colon) [µM] |
| --- | --- | --- | --- | --- | --- | --- | --- | --- | --- | --- | --- | --- | --- | --- |
| COC(=O)C1SC(SC)=NC12c1ccccc1Nc1ccccc12 (configuration not stated) | 53.4 | > 100 | > 100 | > 100 | 39.3 | > 100 | 74.3 | > 100 | > 100 | 67.8 | > 100 |  |  |  |
| CCOC(=O)C1(C/C=C/CBr)Cc2ccccc2C1=O (configuration not stated) |  | 14.8 | 4.84 | 24.4 | 11.7 | 12.2 | 21.3 | 25.8 | 32.6 | 3.19 | 4.83 | 28.9 |  |  |
| CC(C)(C)OC(=O)N[C@H]1CCN(C2CCCCC2)C1=O |  | > 100 | > 100 | > 100 | > 100 |  | > 100 | > 100 | > 100 | > 100 | > 100 | > 100 |  |  |
| COc1cccc(C(=O)O[C@H]2[C@@H]3[C@]4(OC(C)=O)CO[C@@H]4C[C@H](O)[C@@]3(C)C(=O)[C@H](OC(C)=O)C3=C(C)[C@@H](OC(=O)[C@H](O)[C@@H](NC(=O)OC(C)(C)C)c4ccco4)C[C@]2(O)C3(C)C)c1 | > 14.8 | > 32.7 |  | 3.4 | 0.119 |  |  | > 37.5 |  | 0.0909 | > 35 | > 37.5 |  |  |
| N#Cc1c(-c2ccccc2)/c(=C\Nc2cccc(C(F)(F)F)c2)c(=O)n2c1nc1ccccc12 |  | > 100 |  |  | > 100 | > 100 | > 100 | > 100 | > 100 | > 100 | 22.1 | > 100 |  |  |
| COc1ccc(COCCOCc2nc(C#N)c(N)o2)cc1 | > 100 | > 100 | > 100 |  | > 100 | > 100 | > 100 | > 100 | > 100 | > 100 | > 100 | > 100 |  |  |
| S=C1Nc2ccccc2SC1c1ccccc1 (configuration not stated) | > 100 | 55.2 | > 100 | 83.2 | > 100 | > 100 |  | > 100 |  | > 100 | > 100 | > 100 |  |  |
| Cc1cn2c(/C=N/N=C(N)N)c(-c3cccc([N+](=O)[O-])c3)nc2s1 |  |  |  | 5.19 |  |  | 2.83 | 7.08 |  | 3.21 | 19.6 | 2.71 |  |  |
| CN1CCN(C2=NCCO2)CC1 | > 100 | > 100 | > 100 |  | > 100 | > 100 | > 100 | > 100 | > 100 | > 100 | > 100 | > 100 |  |  |
| O=C(CCN1CCCCC1)C(=Cc1ccccc1)C(=O)CCN1CCCCC1 |  | > 100 | > 55.2 |  | > 76.4 |  | > 100 |  | > 100 |  | > 100 |  | 3.46 | 2.62 |
| CC(C)=CCc1c2c(c3occ(-c4ccc(O)cc4)c(=O)c3c1O)CC(C(C)(C)O)O2 (configuration not stated) |  | 33.6 | 42.1 | 69.5 | 30 | 34.1 | 23.2 | 35.6 | 29.6 | 30.5 | 22.2 | 27.6 |  |  |
| COc1ccc(-c2c(C#N)c(-c3ccc(C)cc3)n(NS(=O)(=O)c3ccc(C)cc3)c(=O)c2C#N)cc1 |  | > 100 | > 100 | 75.1 | > 100 |  | > 100 | > 100 | > 100 | > 100 |  | > 100 |  |  |
| Cc1cc(Cc2cc(C)c(N)cc2N)c(N)cc1N |  | > 100 | > 100 |  | > 100 | > 100 |  | > 100 | > 100 | > 100 | > 100 | > 100 |  |  |
| O=[N+]([O-])c1ccc2c(c1)c(OCc1ccccc1)nn2Cc1ccccc1 |  | > 100 | > 100 | > 100 |  | > 100 | > 100 | > 100 | > 100 | > 100 | > 100 | > 100 |  |  |
| O=C(N/N=C(/COc1ccc(Cl)cc1)N=Cc1ccncc1)c1ccncc1 |  | > 100 | > 100 | > 100 | > 100 | > 100 | > 100 | > 100 | > 100 | > 100 |  | > 100 |  |  |
| COc1cc(C2c3cc4c(cc3OC(N3CCOCC3)C2C)OCO4)ccc1O (configuration not stated) | > 68.9 | > 63.8 | 33 | 41.9 | > 100 | > 78.2 | 52.5 | > 100 | 51.4 | > 26.3 | > 92.8 |  |  |  |
| O=C1CCCc2cc3c(cc21)CC1(Cc2ccccc2C1)C3 |  | 32.6 | 7.74 | > 100 | 5.11 | 96.9 | 39.3 | 29.6 | 67 | 4.61 |  | 46.6 |  |  |
| Cc1ccc(Cl)c2[nH]c(-c3ccccc3)cc(=O)c12 |  | > 100 | > 100 | > 100 | > 100 | > 100 | > 100 | > 100 | > 100 | > 100 |  | > 100 |  |  |
| Clc1ccccc1C(SCc1ccccc1)SCc1ccccc1 | > 100 | > 100 | > 100 |  | > 100 |  | > 100 | > 100 |  |  | > 100 |  |  |  |
| CC[C@@H]1CC[C@@H]2[C@H](CC[C@]3(C)[C@@H](OC(C)=O)CC[C@@H]23)[C@H]1COC(C)=O |  | > 100 | 36.2 | > 100 | 36.8 | > 100 | 33.4 | > 100 | 94.4 | 50.2 | > 100 | 56.6 |  |  |
| COC(=O)c1cc(=O)nc2sc3cccc(C)c3n12 | > 100 | > 100 | > 100 | > 100 | 29.8 | > 100 |  | 47.3 |  | > 100 |  | > 100 |  |  |
